US9994578B2, “Benzodiazepine derivative and use thereof” (JIANGSU NHWALUOKANG PHARMCEUTICAL RESEARCH AND DEVELOPMENT …, priority 2014, dated 2018)
Converted amounts (≈) assume the structure as drawn. Marks after values point to notes of the source that are not given here.

Legend:
Kunming mice = test: Anesthetic efficacy on mice (disappearance of righting reflex); assay type: in vivo; conditions: for Number of anesthetized animals / Behavior of animals: 9 mg/kg caudal vein injection, 0.9 mg/ml; for Number of anesthetized animals: 6 per group, disappearance of righting reflex
Method: Kunming mice (SPF, Chongqing Medical University Animal Center) were randomly grouped with 6 animals in each group. The dosage as 9 mg/kg was administered via caudal vein injection for 3-5 seconds. The performances during animal experiments were recorded with the standard of disappearance of righting reflex.

[1] = Solubility in normal saline; assay type: physicochemical; conditions: saline or isotonic
Method: The structures of the compounds C1-C5 and their solubilities in normal saline are as follows:
Furthermore, other derivatives were also prepared. The structures and solubilities in normal saline are as follows: […]

[2] = system: New Zealand white rabbits; test: Rabbits anesthetic ED50 (sequential method); assay type: in vivo; conditions: Oryctolagus cuniculus, ear vein injection in 30 seconds, disappearance of righting reflex
Method: Anesthetic ED50 values of rabbits are determined by sequential method. Healthy New Zealand white rabbits (SPF, Peizhou rabbit breeding center) were administrated via ear vein injection at a constant speed in 30 seconds. The rough dosage that cause anesthesia (or death) of animal were found by preliminary test before experiment and used as middle dosage for the formal experiment. The spacing of each group was set as 0.8 and 2-3 dose-groups were set up and down, respectively. The disappearance of righting reflex or death was used as judgment index of efficacy or toxicity, respectively. During the formal experiment, administration began from the group of middle dosage. When the animal was anesthetized (or dead), administration was reduced by a dose unit; if the animal was not anesthetized (or dead), administration was increased by a dose unit, until 3-4 reversal occurred. The disappearance of righting reflex or death was used as judgment index, respectively. The ot425 software was used to calculate ED50.

SD rats = test: Anesthetic ED50, LD50 and TI index of rats (sequential method); assay type: in vivo; conditions: for ED50: Rattus norvegicus, male SD rats, caudal vein injection in 10 seconds, disappearance of righting reflex; for TI index: rats, LD50/ED50
Method: (§1) Anesthetic ED50 (median effective dose) value and LD50 (half lethal dose) value of rats are determined by sequential method. Healthy male SD rats (SPF, Qinglongshan animal breeding center of Nanjing), n-10˜20, were administrated via caudal vein injection and injection was completed in 10 seconds at a constant speed. The rough dosage that cause anesthesia (or death) of animal was found by preliminary test before experiment and used as middle dosage for the formal experiment. The spacing of each group was set as 0.8, and 2-3 dose-groups were set up and down, respectively. During the formal experiment, administration began from the group of middle dosage. When the animal was anaesthetized (or dead), administration was reduced by a dose unit; if the animal was not anaesthetized (or death), administration was increased by a dose unit until 3-4 reversal were found. The disappearance of righting reflex or death was used as judgment index, respectively. The ot425 software was used to calculate LD50 and ED50. Treatment index (TI index) was calculated by LD50 and ED50 value=LD50/ED50.

[3] = as above; assay type: in vivo; conditions: rat, in vivo, intravenous; male SD rats, caudal vein injection in 10 seconds, death
Method: as §1

Macaca fascicularis = test: Anesthetic pharmacodynamic experiment on Macaca fascicularis; assay type: in vivo; conditions: for Number of anesthetic animal/number of animal: disappearance of eyelid response
Method: Compound C2 showing significant efficacy on other animal, was administrated to Macaca fascicularis for anesthetic pharmacodynamic experiment. The rough anesthetic dosage of compound C2 for Macaca fascicularis was investigated by preliminary test before experiment and different dosages were set for the formal experiment. Intravenous administration was performed in 60±10s. The disappearance of eyelid response of animal was used to judge whether anesthesia occurred on the animal. The behaviors of animals were observed during duration period and the anesthetic effects of compound C2 on Macaca fascicularis were evaluated.

[4] = Rat plasma decomposition in vitro; assay type: in vitro ADME; conditions: 37° C.
Method: Remimazolam and compound C2 were formulated in normal saline of respectively. 0.1 ml of the solution was measured and added into plasma of rat (living Kunming species, SPF, Animal center of Chongqing Medical University). Mixing was performed sufficiently, and the mixture was placed in constant temperature water bath of 37° C. 2 ml of acetonitrile was added immediately after taking samples at different time-points. Shaking and centrifugation at 1000 rpm/min were conducted to obtain supernatant and HPLC measurement was performed.

rats = test: Anesthetic induction time and waking up time of rats via intravenous bolus; assay type: in vivo; conditions: 2*ED50 i.v. bolus, recovery time
Method: (§2) Kunming rats (SPF, Qinglongshan animal breeding center of Nanjing), half male and half female, were divided into groups with 10 animals in each group. The dosage of administration was 2*ED50 (ED50 value was detected in Example 12) and caudal vein injection was done at a constant speed in 10 seconds. The time for the disappearance of right reflex (latent period) and recovery time (duration period) of rats were recorded.

Kunming rats = test: as above; assay type: in vivo; conditions: for Number of anesthetic animals: 2*ED50 caudal vein injection in 10 seconds, 10 per group; for Induction time: 2*ED50 i.v. bolus, time to disappearance of righting reflex
Method: as §2

[5] = system: New Zealand white rabbits; test: Anesthetic induction time and waking up time of rabbits via intravenous bolus; assay type: in vivo; conditions: for Number of anesthetic animals: 1.0 mg/kg (2*ED50) ear vein injection in 30 seconds, 8 per group; for Duration / Induction time: 1.0 mg/kg (2*ED50) i.v. bolus
Method: New Zealand white rabbits (SPF, Peizhou rabbit breeding center), half male and half female, were divided into groups with 8 animals in each group. The dosage of administration was 2*ED50 (ED50 value was detected in Example 14), and was administrated via ear vein injection at a constant speed in 30 seconds. The time (latent period) for the disappearance of right reflex and recovery time (duration period) of rabbits were recorded.

[6] = system: New Zealand white rabbits; test: Long-term venous infusion experiment on rabbits; assay type: in vivo; conditions: inducing dose 1.5 mg/kg (3*ED50), maintaining dose 22.5 mg/kg/h
Method: New Zealand white rabbits (SPF, Peizhou rabbit breeding center), half male and half female, were divided into groups with 10 animals in each group. The dosage of each administration was 3*ED50 (ED50 value was detected in Example 14) as inducing dosage when intravenous injection was performed on rabbits. An appropriate dosage was infused as maintaining dosage for 30 min. […] The effects of long-term infusion of medicine of the two groups on rabbits (breathe, salivation, excrement) were observed and the time from ceasing administration to the recovery of righting reflex of rabbits were recorded.

[7] = Oil/water partition coefficient (n-octanol/water); assay type: physicochemical; conditions: 1 mg/ml aqueous solution, room temperature
Method: Remirnazolam and compound C2 were formulated into aqueous solution of 1 mg/ml respectively, 10 ml of prepared solution were measured and n-octanol with equal volume was added.

[8] = Hepatocyte metabolism experiment of CNS 7056 in vitro with formic acid; assay type: in vitro ADME; conditions: formic acid added in liver cell nutrient solution at 0.1% (v/v)
Excerpt: Therefore, after a long-term administration of remimazolam during ICU sedation process by ONO PHARMACEUTICAL CO., LTD, the metabolite methanol is easily oxidized to formic acid. Formic acid easily accumulates in vivo and inhibits hCES1 such that remimazolam is metabolized slowly, which may cause high serum concentration in some patients.

ICU patients = conditions: of 49 ICU patients, sedation; cited from earlier work
[9] = system: GABAA receptor benzodiazepines site; test: In vitro affinity with GABAA receptor benzodiazepines site (3H-flunitrazepam displacement, brain membrane); assay type: binding, SD rat

In the case of CCCOC(=O)CC[C@@H]1N=C(c2ccccn2)c2cc(Br)ccc2-n2c(C)cnc21.Cc1ccc(S(=O)(=O)O)cc1 [C7, remimazolam acid n-propyl ester p-toluenesulfonate], the “Number of anesthetized animals” value (Kunming mice) is reported as 0/6 and the solubility [1] is reported as 8 mg/mL.
CCOC(=O)CC[C@@H]1N=C(c2ccccn2)c2cc(Br)ccc2-n2c(C)cnc21.CS(=O)(=O)O [C4, remimazolam acid ethyl ester methanesulfonate] gave a solubility [1] of 16 mg/mL.
Work on CCOC(=O)CC[C@@H]1N=C(c2ccccn2)c2cc(Br)ccc2-n2c(C)cnc21 [C2, remimazolam acid ethyl ester p-toluenesulfonate] yielded an ED50 [2] of 0.512 mg/kg, an ED50 (SD rats) of 3.2 mg/kg and a TI index (SD rats) of 9.6. It also gave an LD50 [3] of 30.7 mg/kg, a Duration (Macaca fascicularis; 3 mg/kg i.v.) of 28.67 ± 5.92 min and an Induction time (Macaca fascicularis; 3 mg/kg i.v.) of 2.00 ± 0.63 s. The “Number of anesthetic animal/number of animal” value (Macaca fascicularis; 3 mg/kg i.v.) was 3/3, the Duration (Macaca fascicularis; 4 mg/kg i.v.) was 31.67 ± 6.86 min and the Induction time (Macaca fascicularis; 4 mg/kg i.v.) was 1.74 ± 0.43 s. The “Number of anesthetic animal/number of animal” value (Macaca fascicularis; 4 mg/kg i.v.) was 3/3, the Duration (Macaca fascicularis; 5 mg/kg i.v.) was 36.21 ± 4.78 min and the Induction time (Macaca fascicularis; 5 mg/kg i.v.) was 1.48 ± 0.54 s. The “Number of anesthetic animal/number of animal” value (Macaca fascicularis; 5 mg/kg i.v.) was 3/3, the “Rat Plasma decomposition in vitro (%)” value ([4]; 10 s) was 61.4% and the “Rat Plasma decomposition in vitro (%)” value ([4]; 30 s) was 99.0%. The “Rat Plasma decomposition in vitro (%)” value ([4]; 1 min) was 100%, the Duration (rats) was 267.4 ± 105 s and the “Number of anesthetic animals” value (Kunming rats) was 10/10. The Induction time (Kunming rats) was 18.8 ± 3.0 s, the “Number of anesthetic animals” value [5] was 8/8 and the Duration [5] was 13.19 ± 3.52 min. The Induction time [5] was 1.80 ± 0.78 min, the “Waking up time after intravenous drip for 30 min” value [6] was 45.20 ± 12.59 min and the logP at 24 h [7] was 3.28. For the same molecule, the “Number of anesthetized animals” value (Kunming mice) was 6/6 and the solubility [1] was 15 mg/mL (≈ 33.1 mM).
With CCOC(=O)CC[C@@H]1N=C(c2ccccn2)c2cc(Br)ccc2-n2c(C)cnc21.CCS(=O)(=O)O [C5, remimazolam acid ethyl ester ethanesulfonate] the solubility [1] was 16 mg/mL.
COC(=O)CC[C@@H]1N=C(c2ccccn2)c2cc(Br)ccc2-n2c(C)cnc21 [remimazolam, reference compound] gave an ED50 [2] of 0.512 mg/kg, an ED50 (SD rats) of 5 mg/kg and a TI index (SD rats) of 12.3. For the same molecule, the LD50 [3] was 61.4 mg/kg, the Duration (Macaca fascicularis; 3 mg/kg i.v.) was 23.33 ± 6.71 min and the Induction time (Macaca fascicularis; 3 mg/kg i.v.) was 2.17 ± 0.41 s. The “Number of anesthetic animal/number of animal” value (Macaca fascicularis; 3 mg/kg i.v.) was 3/3, the “metabolism of CNS 7056 in hepatocytes” value [8] was “totally inhibited” and the “Rat Plasma decomposition in vitro (%)” value ([4]; 10 s) was 53.7%. The “Rat Plasma decomposition in vitro (%)” value ([4]; 30 s) was 96.7%, the “Rat Plasma decomposition in vitro (%)” value ([4]; 1 min) was 100% and the Duration (rats) was 242.2 ± 68 s. For the same molecule, the “Number of anesthetic animals” value (Kunming rats) was 10/10, the Induction time (Kunming rats) was 52.1 ± 4.7 s and the “patients with higher serum concentration of remimazolam” value (ICU patients) was “Five”. For the same molecule, the “patients with prolonged waking up time” value (ICU patients) was “five”, the “Number of anesthetic animals” value [5] was 8/8 and the Duration [5] was 10.25 ± 2.72 min. The Induction time [5] was 4.30 ± 2.38 min, the “Waking up time after intravenous drip for 30 min” value [6] was 33.91 ± 10.28 min and the logP at 24 h [7] was 2.62. For the same molecule, the Inhibitory rate % ([9]; 1.0 × 10^−5M test compound, 1 nM 3H-flunitrazepam) was 99.7* %, the Inhibitory rate % ([9]; 1.0 × 10^−6M) was 85.5% and the Inhibitory rate % ([9]; 1.0 × 10^−7M) was 47.0%. The Inhibitory rate % ([9]; 1.0 × 10^−8M) was 15.4%, the Inhibitory rate % ([9]; 1.0 × 10^−9M) was 6.8% and the Inhibitory rate % ([9]; 1.0 × 10^−10M) was 23.0%. The IC50 ([9]; calculated by logit method) was 15.8 nM and the “Number of anesthetized animals” value (Kunming mice) was 6/6.
With Cc1ccc(S(=O)(=O)O)cc1.Cc1cnc2n1-c1ccc(Br)cc1C(c1ccccn1)=N[C@H]2CCC(=O)OC1CCCCC1 [C9, remimazolam acid cyclohexyl ester p-toluenesulfonate] the Behavior of animals (Kunming mice) was “Non-effect”, the “Number of anesthetized animals” value (Kunming mice) was 0/6 and the solubility [1] was 5 mg/mL.
In the case of Cc1ccc(S(=O)(=O)O)cc1.Cc1cnc2n1-c1ccc(Br)cc1C(c1ccccn1)=N[C@H]2CCC(=O)OCCC(C)C [C8, remimazolam acid isopentyl ester p-toluenesulfonate], the Behavior of animals (Kunming mice) is reported as “Non-effect”, the “Number of anesthetized animals” value (Kunming mice) is reported as 0/6 and the solubility [1] is reported as 6 mg/mL.
With Cc1ccc(S(=O)(=O)O)cc1.Cc1cnc2n1-c1ccc(Br)cc1C(c1ccccn1)=N[C@H]2CCC(=O)OC(C)C [C6, remimazolam acid isopropyl ester p-toluenesulfonate] the “Number of anesthetized animals” value (Kunming mice) was 6/6, the “anesthetic effect on the mice” value (Kunming mice; 9 mg/kg i.v.) was “has anesthetic effect on the mice” and the toxicity in mice (Kunming mice; 9 mg/kg i.v.) was “shows some toxicity”. For the same molecule, the solubility [1] was 8 mg/mL.
CCOC(=O)CC[C@@H]1N=C(c2ccccn2)c2cc(Br)ccc2-n2c(C)cnc21.O=S(=O)(O)c1ccccc1 [C3, remimazolam acid ethyl ester benzenesulfonate] showed a solubility [1] of 15 mg/mL.
